Entries after “also recorded” stand apart in the source; their conditions may differ. Read-outs that look alike come from different tables or passages of the source.
Columns and labels:
[1] = tested on: Lzm-S-induced carotid artery vasodilation; test: Prevention of Lzm-S-induced vasodilation by pretreatment agents in the carotid artery ring preparation; set-up: species or system canine; conditions: for contraction after Lzm-S relative to the value post-L-NMMA treatment: L-NMMA 10^−3 mol/L treated group (n=8); for blockade of Lzm-S-induced vasodilation: comparison of hydroxyl radical scavengers with peroxidase
[2] = tested on: phenylephrine contracted canine carotid artery ring preparation; test: Contraction force and vasorelaxation in phenylephrine contracted canine carotid artery ring preparation; conditions: for force after HEPES buffer was added: ethanol 2×10^−7 mol/L control group, HEPES buffer instead of Lzm-S; for contraction after Lzm-S relative to the value pre-Lzm-S treatment: non-L-NMMA treated group (n=12), human Lzm-S 6.7×10^−7 mol/L; for contraction after Lzm-S relative to the pre-Lzm-S contraction: non-indomethacin treated group (n=4)
[3] = pretreatment with the agent, human Lzm-S 6.7×10^−7 mol/L, phenylephrine contracted ring

Nc1ccncc1 [4-aminopyridine]
inhibition of Lzm-S-induced vasodilation (words) [1, 3]: none of these inhibitors prevented Lzm-S's vasodilatory response

O=C(O)CCC/C=C\C/C=C\C/C=C\C/C=C\CCCCCO [20-hydroxyeicosatetraenoic acid]
inhibition of Lzm-S-induced vasodilation (words) [1, 3]: none of these inhibitors prevented Lzm-S's vasodilatory response

CCN(CC)C(=S)S [DECTA, diethyldithiocarbamic acid]
inhibition of Lzm-S-induced vasodilation (words) [1, 3]: neither DECTA (10^−2 mol/L), deferoxamine methanesulfonate salt (10^−2 mol/L), nor the reducing agents N-acetylcysteine (10^−3 mol/L), ascorbic acid (10^−4 mol/L), and reduced-glutathione (10^−3 mol/L) were found to inhibit Lzm-S-induced vasodilation

OO [H2O2, hydrogen peroxide]
effect of H2O2 on force ([2]; 10^−4 mol/L): progressive vasorelaxation over time
effect of H2O2 on precontracted force ([2]; 10^−5 mol/L): minimal effect
effect of H2O2 on force ([2]; higher concentrations, 10^−3 to 10^−1 mol/L): an initial increase in force that was followed by vasorelaxation; also recorded: vasoconstriction that was rapidly followed by vasodilation
effect of H2O2 on force ([2]; lower concentrations, FIG. 8): vasorelaxation was produced

[Cl-].[K+] [KCl]
inhibition of Lzm-S-induced vasodilation (words) [1, 3]: none of these inhibitors prevented Lzm-S's vasodilatory response

CNC(=N)NCCC[C@H](N)C(=O)O [L-NMMA, N^G-monomethyl-L-arginine]
contraction after Lzm-S relative to the value post-L-NMMA treatment ([1]; human Lzm-S 6.7×10^−7 mol/L, 5 minutes): 37±22%
contraction after Lzm-S relative to the value post-L-NMMA treatment ([1]; human Lzm-S 6.7×10^−7 mol/L, 15 minutes): 13±16%
contraction after Lzm-S relative to the value post-L-NMMA treatment ([1]; human Lzm-S 6.7×10^−7 mol/L, 30 minutes, minus = below resting force): −0.3±1%
inhibition of Lzm-S-induced vasodilation (words) [1, 3]: did not inhibit lysozyme induced vasodilation; also recorded: did not Prevent Vasodilation
contraction with L-NMMA treatment ([2]; L-NMMA 10^−3 mol/L added after phenylephrine plateau, before Lzm-S): 8.1±3.5 grams

O=C1C(Nc2ccccc2)=CC(=O)c2ncccc21 [LY 83583, 6-anilino-5,8-quinolinequinone]
inhibition of Lzm-S-induced vasodilation (words) [1, 3]: prevented lysozyme induced vasdodilation; also recorded: found to inhibit Lzm-S's effect

CC(=O)N[C@@H](CS)C(=O)O [N-acetylcysteine]
inhibition of Lzm-S-induced vasodilation (words) [1, 3]: neither DECTA (10^−2 mol/L), deferoxamine methanesulfonate salt (10^−2 mol/L), nor the reducing agents N-acetylcysteine (10^−3 mol/L), ascorbic acid (10^−4 mol/L), and reduced-glutathione (10^−3 mol/L) were found to inhibit Lzm-S-induced vasodilation

O=c1onc2cnc3ccccc3n12 [ODQ, 1H-[1,2,4]oxadiazolo[4,3-a]quinoxalin-1-one]
inhibition of Lzm-S-induced vasodilation (words) [1, 3]: prevented lysozyme induced vasdodilation; also recorded: found to inhibit Lzm-S's effect

Nc1ncnc2c1ncn2C1CCCO1 (stereo not drawn) [SQ 22, 536]
inhibition of Lzm-S-induced vasodilation (words) [1, 3]: none of these inhibitors prevented Lzm-S's vasodilatory response

O=C1O[C@H]([C@@H](O)CO)C(O)=C1O [ascorbic acid]
inhibition of Lzm-S-induced vasodilation (words) [1, 3]: neither DECTA (10^−2 mol/L), deferoxamine methanesulfonate salt (10^−2 mol/L), nor the reducing agents N-acetylcysteine (10^−3 mol/L), ascorbic acid (10^−4 mol/L), and reduced-glutathione (10^−3 mol/L) were found to inhibit Lzm-S-induced vasodilation

CN1[C@@H]2CC[C@H]1C[C@@H](OC(=O)C(CO)c1ccccc1)C2 (stereo partly drawn) [atropine]
inhibition of Lzm-S-induced vasodilation (words) [1, 3]: none of these inhibitors prevented Lzm-S's vasodilatory response

CC(=O)N[C@H]1[C@H](O[C@H]2[C@H](O)[C@@H](NC(C)=O)C(O)O[C@@H]2CO)O[C@H](CO)[C@@H](O)[C@@H]1O (stereo partly drawn) [chitobiose, N,N′-diacetylchitobiose]
inhibition of Lzm-S-induced vasodilation (words) [1, 3]: did not block Lzm-S's vasodilatory response

CC(=O)N[C@H]1[C@H](O[C@H]2[C@H](O)[C@@H](NC(C)=O)C(O)O[C@@H]2CO)O[C@H](CO)[C@@H](O[C@@H]2O[C@H](CO)[C@@H](O)[C@H](O)[C@H]2NC(C)=O)[C@@H]1O (stereo partly drawn) [chitotriose, N,N′,N″-triacetylchitotriose]
inhibition of Lzm-S-induced vasodilation (words) [1, 3]: did not block Lzm-S's vasodilatory response

CN(C)CCOC(c1ccccc1)c1ccccc1.Cl [dipheniramine hydrochloride]
inhibition of Lzm-S-induced vasodilation (words) [1, 3]: none of these inhibitors prevented Lzm-S's vasodilatory response

CCO [ethanol]
inhibition of Lzm-S-induced vasodilation (words) [1, 3]: inhibited the effect of lysozyme
inhibition of Lzm-S-induced vasodilation (words) ([1]; pretreatment with the agent, human Lzm-S 6.7×10^−7 mol/L, phenylephrine contracted ring, listed as Ethanol): markedly effective
force after HEPES buffer was added ([2]; 5 minutes): 10.7±2.8 grams
force after HEPES buffer was added ([2]; 15 minutes): 11±2.8 grams
force after HEPES buffer was added ([2]; 30 minutes): 11±2.6 grams
contraction with ethanol as compared with the phenylephrine contraction alone ([2]; ethanol treated control group, ethanol highest concentration 2×10^−7 mol/L, before HEPES buffer): 10±2.6 grams
initial effect of ethanol on force ([2]; higher concentrations of ethanol, before Lzm-S): initial vasoconstriction

Oc1ccc(O)cc1 [hydroquinone]
blockade of Lzm-S-induced vasodilation [1]: 60%
inhibition of Lzm-S-induced vasodilation (words) [1, 3]: inhibited the vasodilatory effect of lysozyme
inhibition of Lzm-S-induced vasodilation (words) ([1]; pretreatment with the agent, human Lzm-S 6.7×10^−7 mol/L, phenylephrine contracted ring, listed as hydroxyquinone): inhibitory effect

OC[C@@H](O)[C@@H](O)[C@H](O)[C@H](O)CO [mannitol]
blockade of Lzm-S-induced vasodilation [1]: 60%
inhibition of Lzm-S-induced vasodilation (words) [1, 3]: inhibited the vasodilatory effect of lysozyme; also recorded: inhibitory effect

CN(C)c1ccc2nc3ccc(=[N+](C)C)cc-3sc2c1 [methylene blue]
inhibition of Lzm-S-induced vasodilation (words) [1, 3]: inhibited the effect of lysozyme; also recorded: prevented lysozyme induced vasdodilation; also recorded: found to inhibit Lzm-S's effect

CNC[C@H](O)c1cccc(O)c1 [phenylephrine]
phenylephrine response ([2]; endothelial denuded preparation): 7.1±0.5 grams
phenylephrine response ([2]; endothelial intact preparation): 6.7±0.7 grams
phenylephrine contraction alone ([2]; ethanol treated control group, baseline before ethanol): 8.2±2.6 grams
mean increase in contraction from resting force with phenylephrine ([2]; indomethacin treated group): 7.5±1.4 grams
mean increase in force from resting tension with phenylephrine ([2]; non-indomethacin time control group): 6.9±2.7 grams
mean increase in resting force caused by phenylephrine ([2]; phenylephrine 10^−5 mol/L, L-NMMA treated group): 6.2±2.4 grams
mean increase in contraction from resting force caused by phenylephrine ([2]; phenylephrine 10^−5 mol/L, non-L-NMMA treated group): 7.1±2.1 grams

CC(C)NCC(O)COc1cccc2ccccc12 (stereo not drawn) [propranolol]
inhibition of Lzm-S-induced vasodilation (words) [1, 3]: none of these inhibitors prevented Lzm-S's vasodilatory response

N[C@@H](CCC(=O)N[C@@H](CS)C(=O)NCC(=O)O)C(=O)O [reduced-glutathione, reduced glutathione]
inhibition of Lzm-S-induced vasodilation (words) [1, 3]: neither DECTA (10^−2 mol/L), deferoxamine methanesulfonate salt (10^−2 mol/L), nor the reducing agents N-acetylcysteine (10^−3 mol/L), ascorbic acid (10^−4 mol/L), and reduced-glutathione (10^−3 mol/L) were found to inhibit Lzm-S-induced vasodilation

CC[N+](CC)(CC)CC [tetraethylammonium]
inhibition of Lzm-S-induced vasodilation (words) [1]: none of these inhibitors prevented Lzm-S's vasodilatory response

charybdotoxin
inhibition of Lzm-S-induced vasodilation (words) [1, 3]: none of these inhibitors prevented Lzm-S's vasodilatory response

deferoxamine methanesulfonate salt
inhibition of Lzm-S-induced vasodilation (words) [1, 3]: neither DECTA (10^−2 mol/L), deferoxamine methanesulfonate salt (10^−2 mol/L), nor the reducing agents N-acetylcysteine (10^−3 mol/L), ascorbic acid (10^−4 mol/L), and reduced-glutathione (10^−3 mol/L) were found to inhibit Lzm-S-induced vasodilation

guanosine 3′,5′-cyclic monophosphorothioate, β-phenyl-1,N^2-etheno-8-bromo-Rp-isomer, sodium salt [PKG inhibitor]
inhibition of Lzm-S-induced vasodilation (words) ([1]; pretreatment with the agent, human Lzm-S 6.7×10^−7 mol/L, phenylephrine contracted ring, listed as protein kinase G inhibitor, sodium salt): prevented lysozyme induced vasdodilation
inhibition of Lzm-S-induced vasodilation (words) ([1]; pretreatment with the agent, human Lzm-S 6.7×10^−7 mol/L, phenylephrine contracted ring, sodium salt): found to inhibit Lzm-S's effect

iberiotoxin: used for inhibition of potassium channels (QFTDVDCSVSKECWSVCKDLFGVDRGKCMGKKCRCYQ; Iberiotoxin; UniProt P24663 1-37, looked up)
inhibition of Lzm-S-induced vasodilation (words) [1, 3]: none of these inhibitors prevented Lzm-S's vasodilatory response

B1: human Lzm-S: Human lysozyme purchased from EMD Biosciences; used in all experiments after the initial ones (protein, UniProt P61626 19-148, looked up)
Lysozyme C: KVFERCELARTLKRLGMDGYRGISLANWMCLAKWESGYNTRATNYNAGDRSTDYGIFQINSRYWCNDGKTPGAVNACHLSCSALLQDNIADAVACAKRVVRDPQGIRAWVAWRNRCQNRDVRQYVQGCGV
vasorelaxation in the carotid artery preparation (mean values) ([2]; FIG. 2 mean values): significant vasorelaxation
contraction after Lzm-S, % of the phenylephrine plateau ([2]; endothelium denuded preparation (n=4), 5 minutes): 79±18%
contraction after Lzm-S, % of the phenylephrine plateau ([2]; endothelium denuded preparation (n=4), 15 minutes): 58±21%
contraction after Lzm-S, % of the phenylephrine plateau ([2]; endothelium denuded preparation (n=4), 30 minutes): 54±20%
contraction after Lzm-S, % of the phenylephrine plateau ([2]; endothelium intact preparation (n=4), 5 minutes): 64±25%
contraction after Lzm-S, % of the phenylephrine plateau ([2]; endothelium intact preparation (n=4), 15 minutes): 53±33%
contraction after Lzm-S, % of the phenylephrine plateau ([2]; endothelium intact preparation (n=4), 30 minutes): 76±21%
constriction after lysozyme relative to the phenylephrine value ([2]; example traces FIG. 1, phenylephrine constricted carotid ring): about 40%
vasodilatory effect ([2]; human Lzm-S 3.3×10^−7 mol/L): minimal vasodilatory effect
reduction in contraction ([2]; human Lzm-S higher concentration (6.7×10^−7 mol/L)): nearly eliminated the increase in force induced by phenylephrine
contraction after Lzm-S relative to the value pre-Lzm-S treatment ([2]; 5 minutes): 23±24%
contraction after Lzm-S relative to the value pre-Lzm-S treatment ([2]; 15 minutes): 8±27%
contraction after Lzm-S relative to the value pre-Lzm-S treatment ([2]; 30 minutes): 2±34%
contraction after Lzm-S relative to the pre-Lzm-S contraction ([2]; 5 minutes): 71±16%
contraction after Lzm-S relative to the pre-Lzm-S contraction ([2]; 15 minutes): 45±19%
contraction after Lzm-S relative to the pre-Lzm-S contraction ([2]; 30 minutes): 19±15%
